Tests used:
[1] = Storage of nicotine Eudragit E 100 solutions with antioxidants, visual colour (Pantone Colour Code); assay type: physicochemical; conditions: stored in the dark 4 weeks at 60° C. or 80° C.
Description: Since polyisobutylenes contain terminal double bonds and therefore have to be stabilised by the antioxidant butyl hydroxytoluene, it was examined whether the avoidance of nicotine discolouration can be achieved by antioxidants. Pharmaceutically acceptable antioxidants were therefore added to nicotine in graded-concentrations in 2 test series to form solutions of Eudragit E 100 (cationic copolymer based on dimethylaminoethyl methacrylate, butyl methacrylate and methyl methacrylate in a ratio of 2:1:1). These solutions were stored in the dark for 4 weeks at 60° C. or 80° C.
Butyl hydroxytoluene (BHT), ascorbyl palmitate and tocopherol were tested as antioxidants.
The samples were examined visually after storage, and the relevant Pantone Colour Code for the colour of the sample was determined. The Pantone Colour Code is an internationally used colour system developed by the company Pantone LLC, USA. As a result it is possible to determine that the antioxidants were unable to suppress the discolouration of the nicotine.

[2] = Analysis of nicotine degradation products in stored samples; assay type: physicochemical; conditions: conclusion from degradation products
Experimental: In order to check which decomposition products of nicotine cause the brown colour, sample Nic 0007 was analysed.

For `CCCCCCCCCCCCCCCC(=O)OC[C@H](O)[C@H]1OC(=O)C(O)=C1O` [ascorbyl palmitate], the “suppression of the discolouration of nicotine” value [1] was “does not prevent the brown colouration of nicotine” and the decomposition of nicotine [2] was “does prevent its decomposition”.

— patent US20200230074A1, “NICOTINE-CONTAINING TRANSPARENT TRANSDERMAL THERAPEUTIC SYSTEM” (LTS Lohmann Theraple-Systeme AG, priority 2017, published 2020)
